In patent publication US8961931B2, “18F-labeled monomeric galactose derivative used as tomography probe” (Institute of Nuclear Energy Research, Atomic Energy Council, priority 2011, dated 2015):

Tested on: liver
Assay: DMN-induced liver fibrosis, H & E and Masson's trichrome staining
Type: in vivo, mouse
Procedure: Please refer to FIG. 6, which is a view showing liver fibrosis of mice dyed through H & E and Masson methods. As shown in the figures, dimethylnitrosamine (DMN) is used to induce liver fibrosis. 12 mice are randomly divided into two groups each having 6 mice. One is an experimental group and the other is a control group. Mice in the experimental group are injected with 10 mg·kg of DMN for 3 continuous days in a week, and this process lasts for four weeks. Mice in the control group are injected with the same amount of normal saline diluted into a density of 10 mg/ml. During the time for inducing liver fibrosis, all mice are fed with food and water normally. Four days after injecting DMN the final time, dyeing methods of H & E and Masson's are used to examine sliced tissues of mouse bodies for confirming DMN's ability on inducing liver fibrosis of the mice.
For examining the tissues, the mice are sacrificed by blowing high-density CO2 for the mice to breathe in at first. Then, the livers are taken out to sink left lateral lobe in 4% pH 7.4 phosphate-buffered paraformaldehyde. After being paraffin-embedded for 24 hrs, 4 μm of each tissue is taken.
The tissues are examined for their morphological changes through methods of Hematoxylin and Eosin stains and then Masson's trichrome is used to examine statuses of liver fibrosis. […]

In the case of `CN(C)N=O` [DMN, dimethylnitrosamine], the “average weight of mouse having fibrosis liver relative to normal mouse” value (DMN 3 continuous days a week for four weeks) is reported as 92% and the “Masson's trichrome staining of liver tissue” value (four days after final DMN injection) is reported as “show blue color on fibrosis tissues”.
